# Measured values published in article PMC13070491, “Single-nucleus transcriptomics, pharmacokinetics, and pharmacodynamics of CDK4/6 and mTOR inhibition in a Phase 0/1 trial of recurrent high-grade glioma” (Neuro-Oncology, 2025).
# Tested on: GB126, GB239 and GB86 patient-derived cell lines
# Assay: In vitro single-cell RNA sequencing, analyses across the cell lines (pseudobulk differential gene expression, GSEA, non-cycling cells)
# Type: cell-based, human
# Conditions: pseudobulk, ribociclib versus control (DMSO)
# Protocol: Patient-derived glioma stem cell lines (GSCs; GB126, GB86, and GB239) were established from resected GBM tumor tissue. Cell lines were genetically profiled for mutations and copy number aberrations using the IvySeq custom gene panel. […] GB239 was derived from a tumor sample included in this Phase 0 trial (tumor sample: 100-0039). All human GSCs were cultured as described previously.[12]
# Following the fifth day of drug exposure, cells were harvested, cryopreserved to be processed at a later point, or immediately processed for single-cell RNA sequencing (10x Genomics, 3’ version 3). The single-cell RNA sequencing data were then processed via cellranger count and Seurat. Briefly, cells were filtered out based on the following criteria: minimum number of genes detected >500 and <10 000 with a maximum percentage of mitochondrial genes set to 10%. Statistical assessment was made between the malignant proportions of each cell state using a 2-sided paired t-test.
# Descriptive statistics of the clinical data are included in Table 1. Comparisons between groups were conducted using a 2-sided or paired 2-sided t-test, where indicated. P < .05 was considered significant. Multiple hypothesis test corrections (ie, false discovery rate correction) were applied for snRNAseq pseudobulk differential expression analysis.
structure (smiles),measurement,setting,value
CN(C)C(=O)c1cc2cnc(Nc3ccc(N4CCNCC4)cn3)nc2n1C1CCCC1 [ribo],log2FoldChange ABCA6,gene ABCA6,1.5
same,log2FoldChange ABCA8,gene ABCA8,1.548
same,log2FoldChange AC002074.1,gene AC002074.1,1.866
same,log2FoldChange AC002383.1,gene AC002383.1,1.53
same,log2FoldChange AC004828.1,gene AC004828.1,1.459
same,log2FoldChange AC005538.3,gene AC005538.3,2.148
same,log2FoldChange AC007317.2,gene AC007317.2,2.061
same,log2FoldChange AC009313.1,gene AC009313.1,1.78
same,log2FoldChange AC009975.2,gene AC009975.2,1.436
same,log2FoldChange AC010230.1,gene AC010230.1,1.7556
same,log2FoldChange AC010551.3,gene AC010551.3,1.556
same,log2FoldChange AC012038.2,gene AC012038.2,2.048
same,log2FoldChange AC012405.1,gene AC012405.1,1.439
same,log2FoldChange,gene AC012533.1,-1.092
same,log2FoldChange AC012625.1,gene AC012625.1,1.675
same,log2FoldChange AC013480.1,gene AC013480.1,1.662
same,log2FoldChange AC020892.1,gene AC020892.1,1.613
same,log2FoldChange AC023644.1,gene AC023644.1,1.813
same,log2FoldChange,gene AC024884.2,-1.745
same,log2FoldChange AC025263.1,gene AC025263.1,1.435
same,log2FoldChange,gene AC026333.4,-1.805
same,log2FoldChange AC026888.1,gene AC026888.1,1.994
same,log2FoldChange AC027117.1,gene AC027117.1,1.702
same,log2FoldChange AC055874.1,gene AC055874.1,1.6992
same,log2FoldChange AC073611.1,gene AC073611.1,1.444
same,log2FoldChange AC079117.1,gene AC079117.1,1.6417
same,log2FoldChange AC090403.1,gene AC090403.1,1.628
same,log2FoldChange AC091953.1,gene AC091953.1,1.742
same,log2FoldChange AC092604.1,gene AC092604.1,1.65
same,log2FoldChange AC092617.1,gene AC092617.1,2.048
same,log2FoldChange AC092691.3,gene AC092691.3,1.975
same,log2FoldChange AC096576.2,gene AC096576.2,1.586
same,log2FoldChange AC096576.3,gene AC096576.3,1.66
same,log2FoldChange AC097375.4,gene AC097375.4,1.562
same,log2FoldChange,gene AC099850.3,-1.64
same,log2FoldChange AC100835.2,gene AC100835.2,1.894
same,log2FoldChange AC104078.2,gene AC104078.2,1.507
same,log2FoldChange AC104574.1,gene AC104574.1,1.483
same,log2FoldChange AC106874.1,gene AC106874.1,1.556
same,log2FoldChange AC109129.1,gene AC109129.1,1.6709
same,log2FoldChange AC110296.1,gene AC110296.1,1.762
same,log2FoldChange AC114546.2,gene AC114546.2,1.559
same,log2FoldChange AC114964.2,gene AC114964.2,1.675
same,log2FoldChange,gene AC116914.1,-1.614
same,log2FoldChange AC121154.1,gene AC121154.1,1.879
same,log2FoldChange AC132153.1,gene AC132153.1,1.518
same,log2FoldChange AC133530.1,gene AC133530.1,1.513
same,log2FoldChange AC137579.1,gene AC137579.1,1.549
same,log2FoldChange,gene AC138819.1,-1.883
same,log2FoldChange ACSM5,gene ACSM5,2.672
same,log2FoldChange,gene ACYP1,-1.092
same,log2FoldChange ADAMTS4,gene ADAMTS4,1.636
same,log2FoldChange ADCY5,gene ADCY5,1.503
same,log2FoldChange ADGRA1-AS1,gene ADGRA1-AS1,1.641
same,log2FoldChange ADH1A,gene ADH1A,1.456
same,log2FoldChange AL022324.3,gene AL022324.3,1.692
same,log2FoldChange,gene AL031658.2,-1.667
same,log2FoldChange AL132633.1,gene AL132633.1,1.623
same,log2FoldChange,gene AL132655.3,-1.059
same,log2FoldChange AL135934.1,gene AL135934.1,1.5674
same,log2FoldChange,gene AL138789.1,-1.6906
same,log2FoldChange AL158058.1,gene AL158058.1,2.1266
same,log2FoldChange AL162385.1,gene AL162385.1,2.332
same,log2FoldChange AL354813.1,gene AL354813.1,1.4344
same,log2FoldChange AL355916.2,gene AL355916.2,1.536
same,log2FoldChange,gene AL356094.2,-1.675
same,log2FoldChange AL358394.1,gene AL358394.1,2.818
same,log2FoldChange,gene AL390839.2,-1.735
same,log2FoldChange AL391730.2,gene AL391730.2,1.804
same,log2FoldChange AL445423.1,gene AL445423.1,1.473
same,log2FoldChange AL591686.1,gene AL591686.1,1.912
same,log2FoldChange,gene AL645608.7,-1.064
same,log2FoldChange,gene ANP32E,-1.059
same,log2FoldChange AP000569.1,gene AP000569.1,1.498
same,log2FoldChange AP000857.2,gene AP000857.2,1.634
same,log2FoldChange AP001825.1,gene AP001825.1,1.5203
same,log2FoldChange AP002370.2,gene AP002370.2,1.537
same,log2FoldChange AP002761.2,gene AP002761.2,1.672
same,log2FoldChange,gene ARHGAP11A,-1.6744
same,log2FoldChange ARHGAP26-IT1,gene ARHGAP26-IT1,2.344
same,log2FoldChange,gene ARNTL2,-1.092
same,log2FoldChange ASB9,gene ASB9,1.438
same,log2FoldChange BAIAP3,gene BAIAP3,1.561
same,log2FoldChange BBOX1,gene BBOX1,1.457
same,log2FoldChange,gene BRIP1,-1.784
same,log2FoldChange BST2,gene BST2,1.645
same,log2FoldChange,gene BUB1,-1.8
same,log2FoldChange,gene C1QTNF2,-1.812
same,log2FoldChange C1orf147,gene C1orf147,1.503
same,log2FoldChange C16orf89,gene C16orf89,1.4386
same,log2FoldChange C20orf78,gene C20orf78,1.576
same,log2FoldChange,gene C21orf58,-1.614
same,log2FoldChange CALB2,gene CALB2,2.123
same,log2FoldChange,gene CAMK2N2,-1.147
same,log2FoldChange,gene CCDC74A,-1.6
same,log2FoldChange,gene CCDC74B,-1.688
same,log2FoldChange,gene CCNE2,-1.873
same,log2FoldChange,gene CCNF,-1.863
same,log2FoldChange,gene CDCA4,-1.7252
same,log2FoldChange,gene CDKN3,-1.855
same,log2FoldChange,gene CHAF1B,-1.654
same,log2FoldChange CHGA,gene CHGA,1.609
same,log2FoldChange CHI3L1,gene CHI3L1,1.918
same,log2FoldChange CHL1-AS1,gene CHL1-AS1,1.667
same,log2FoldChange CHST4,gene CHST4,1.465
same,log2FoldChange CLEC1A,gene CLEC1A,1.693
same,log2FoldChange,gene CRHR1,-1.091
same,log2FoldChange CYP4Z1,gene CYP4Z1,1.554
same,log2FoldChange CYSLTR2,gene CYSLTR2,1.514
same,log2FoldChange CYYR1-AS1,gene CYYR1-AS1,1.511
same,log2FoldChange DDO,gene DDO,1.495
same,log2FoldChange,gene DEPDC1B,-1.796
same,log2FoldChange,gene DERL3,-1.095
same,log2FoldChange,gene DHFR,-1.766
same,log2FoldChange,gene DIAPH3-AS2,-1.671
same,log2FoldChange,gene DNA2,-1.693
same,log2FoldChange DSCR8,gene DSCR8,1.633
same,log2FoldChange,gene DTL,-1.106
same,log2FoldChange,gene ECT2,-1.057
same,log2FoldChange FAM71F1,gene FAM71F1,1.476
same,log2FoldChange,gene FAM72D,-1.625
same,log2FoldChange FAM189A2,gene FAM189A2,1.685
same,log2FoldChange,gene FANCG,-1.109
same,log2FoldChange,gene FBLN1,-1.678
same,log2FoldChange,gene FEN1,-1.753
same,log2FoldChange,gene FGFR3,-1.106
same,log2FoldChange FSHR,gene FSHR,1.906
same,log2FoldChange GBP6,gene GBP6,1.725
same,log2FoldChange GDF3,gene GDF3,1.697
same,log2FoldChange,gene GINS2,-1.846
same,log2FoldChange,gene GLI1,-1.086
same,log2FoldChange,gene GMNN,-1.627
same,log2FoldChange HABP2,gene HABP2,1.889
same,log2FoldChange,gene HAUS8,-1.09
same,log2FoldChange HEPH,gene HEPH,1.499
same,log2FoldChange HGFAC,gene HGFAC,1.4467
same,log2FoldChange,gene HIRIP3,-1.608
same,log2FoldChange,gene HIST1H1C,-1.863
same,log2FoldChange,gene HIST1H3H,-1.783
same,log2FoldChange HKDC1,gene HKDC1,1.5426
same,log2FoldChange,gene IL1A,-1.056
same,log2FoldChange,gene IL2RB,-1.0626
same,log2FoldChange,gene INCENP,-1.833
same,log2FoldChange ITIH6,gene ITIH6,1.766
same,log2FoldChange,gene KCNAB3,-1.628
same,log2FoldChange KISS1,gene KISS1,2.005
same,log2FoldChange,gene KNTC1,-1.6836
same,log2FoldChange LINC00239,gene LINC00239,1.81
same,log2FoldChange LINC00587,gene LINC00587,1.439
same,log2FoldChange LINC00601,gene LINC00601,1.889
same,log2FoldChange LINC00645,gene LINC00645,1.665
same,log2FoldChange LINC00844,gene LINC00844,1.919
same,log2FoldChange LINC00892,gene LINC00892,1.448
same,log2FoldChange LINC00901,gene LINC00901,2.0689
same,log2FoldChange LINC00903,gene LINC00903,1.858
same,log2FoldChange LINC00943,gene LINC00943,1.485
same,log2FoldChange LINC00992,gene LINC00992,1.834
same,log2FoldChange,gene LINC01337,-1.849
same,log2FoldChange LINC01496,gene LINC01496,1.714
same,log2FoldChange LINC01630,gene LINC01630,1.508
same,log2FoldChange LINC01822,gene LINC01822,1.567
same,log2FoldChange LINC02073,gene LINC02073,1.471
same,log2FoldChange,gene LINC02137,-1.093
same,log2FoldChange LINC02243,gene LINC02243,1.564
same,log2FoldChange LINC02320,gene LINC02320,1.543
same,log2FoldChange LINC02349,gene LINC02349,1.483
same,log2FoldChange LINC02450,gene LINC02450,1.635
same,log2FoldChange LINC02552,gene LINC02552,1.805
same,log2FoldChange LINC02625,gene LINC02625,1.633
same,log2FoldChange,gene LINC02757,-1.715
same,log2FoldChange LINC02831,gene LINC02831,1.506
same,log2FoldChange LNX1-AS1,gene LNX1-AS1,1.468
same,log2FoldChange,gene LPL,-1.817
same,log2FoldChange,gene LRRC26,-1.7868
same,log2FoldChange MARVELD3,gene MARVELD3,1.752
same,log2FoldChange MCHR1,gene MCHR1,1.5856
same,log2FoldChange,gene MCM8,-1.112
same,log2FoldChange MGP,gene MGP,1.798
same,log2FoldChange,gene MMS22L,-1.0936
same,log2FoldChange,gene MND1,-1.879
same,log2FoldChange MYH7,gene MYH7,1.782
same,log2FoldChange NAT2,gene NAT2,2.867
same,log2FoldChange NCAN,gene NCAN,1.62
same,log2FoldChange,gene NCAPD2,-1.822
same,log2FoldChange,gene NEMP2,-1.111
same,log2FoldChange,gene NEUROD4,-1.88
same,log2FoldChange NHLRC4,gene NHLRC4,1.795
same,log2FoldChange NMRK2,gene NMRK2,1.566
same,log2FoldChange,gene NOSTRIN,-1.881
same,log2FoldChange,gene NT5M,-1.088
same,log2FoldChange,gene NUP210,-1.755
same,log2FoldChange,gene PALM3,-1.6379
same,log2FoldChange,gene PASK,-1.1089
same,log2FoldChange PCP4L1,gene PCP4L1,2.139
same,log2FoldChange,gene PHF19,-1.68
same,log2FoldChange PLA2G5,gene PLA2G5,2.135
same,log2FoldChange PLAAT4,gene PLAAT4,1.529
same,log2FoldChange,gene PMAIP1,-1.131
same,log2FoldChange,gene POLQ,-1.824
same,log2FoldChange PPP1R1C,gene PPP1R1C,1.557
same,log2FoldChange PROK2,gene PROK2,1.695
same,log2FoldChange,gene PRR11,-1.758
same,log2FoldChange,gene PSMC3IP,-1.597
same,log2FoldChange PTGDS,gene PTGDS,2.458
same,log2FoldChange RAB7B,gene RAB7B,1.47
same,log2FoldChange,gene RACGAP1,-1.841
same,log2FoldChange,gene RAD51,-1.643
same,log2FoldChange,gene RADIL,-1.781
same,log2FoldChange,gene RBBP8,-1.095
same,log2FoldChange,gene RDM1,-1.73
same,log2FoldChange,gene REXO5,-1.094
same,log2FoldChange,gene RHBDL3,-1.639
same,log2FoldChange RNASE6,gene RNASE6,1.784
same,log2FoldChange,gene RPA3,-1.063
same,log2FoldChange RSPH1,gene RSPH1,1.529
same,log2FoldChange,gene RTKN2,-1.715
